We go through 34 compounds from patent US12213970B2, “Pyridinyl sulfonamide derivatives, pharmaceutical compositions and uses thereof” (Boehringer Ingelheim International GmbH, priority 2018, dated 2025).

Like-named read-outs stand apart in the source and are kept apart here. Bounds are passed on as bounds.

The target in one experiment is T1, MAO-A (Homo sapiens, UniProt P21397).
T1 construct: purchased Sigma-Aldrich M7316
T1 sequence (P21397 1-527): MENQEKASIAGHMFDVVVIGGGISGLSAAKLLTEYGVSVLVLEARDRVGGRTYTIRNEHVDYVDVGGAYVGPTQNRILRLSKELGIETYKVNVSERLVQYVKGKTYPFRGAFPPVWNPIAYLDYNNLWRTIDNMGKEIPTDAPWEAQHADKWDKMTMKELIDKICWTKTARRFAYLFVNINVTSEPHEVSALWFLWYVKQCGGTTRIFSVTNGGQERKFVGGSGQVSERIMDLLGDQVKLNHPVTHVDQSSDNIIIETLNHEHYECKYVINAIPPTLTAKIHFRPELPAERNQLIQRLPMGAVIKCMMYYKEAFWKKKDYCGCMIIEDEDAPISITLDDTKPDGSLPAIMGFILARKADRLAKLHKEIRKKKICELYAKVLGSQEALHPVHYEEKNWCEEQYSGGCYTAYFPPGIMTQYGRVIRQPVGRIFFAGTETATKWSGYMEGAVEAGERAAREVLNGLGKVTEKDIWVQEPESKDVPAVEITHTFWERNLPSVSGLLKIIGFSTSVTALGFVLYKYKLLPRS
The experiment can be described thus: MAO-A biochemical assay (MAO-Glo). The text has this: The MAO-Glo™ Assay (commercially available from PROMEGA, #V1402) provides a sensitive method for the measurement of monoamine oxidase (MAO) activity (Valley, M. P. et al., 2006, Anal. Biochem. 359: 238-246) from a variety of tissues, biofluids or recombinant expressed or purified enzymes. As substrate a derivate of the beetle luciferin ((4S)-4,5-dihydro-2-(6-hydroxybenzothiazolyl)-4-thiazole-carboxylic acid) is used, which is oxidized at a primary amine moiety. After a spontaneous elimination and a catalyzed esterase reaction, the turnover of luciferin by the luciferase is recorded as a signal of MAO-A activity.
An aliquot of 3 μL of the compound dilution is added to a 384 well plate (Optiplate, PS, flat bottom F, black, PERKIN ELMER, #6007270) in a DMSO concentration of 1.025%.
A MAO-A enzyme aliquot (M7316, Sigma-Aldrich) is thawed on ice, diluted in reaction buffer to 1.25 mU/μL and added in a volume of 5 μL to the wells. After incubation for 20 minutes at 37° C., 2 μL of MAO substrate (dissolved in DMSO at 16 mM, diluted to 20 μM in assay buffer to obtain a final assay concentration of 4 μM) is added, mixed, and the mixture further incubated for 60 minutes at 37° C.
The turnover of the substrate is determined by the addition of 10 μL of the Detection Reagent mix which was generated by the addition of reconstitution buffer with esterase (PROMEGA, #V1402) to the luciferin detection reagent (PROMEGA, #V1402). After an incubation period of 20 minutes at 37° C., the luminescent signal is measured with a […], e.g. Envision 2104 Multilabel Reader (PERKIN ELMER).

The next experiment addresses T2, AOC2 (Homo sapiens, UniProt O75106).
T2 construct: host or cells: HEK293 cells (transient transfection), cell homogenate
T2 sequence (O75106 1-756): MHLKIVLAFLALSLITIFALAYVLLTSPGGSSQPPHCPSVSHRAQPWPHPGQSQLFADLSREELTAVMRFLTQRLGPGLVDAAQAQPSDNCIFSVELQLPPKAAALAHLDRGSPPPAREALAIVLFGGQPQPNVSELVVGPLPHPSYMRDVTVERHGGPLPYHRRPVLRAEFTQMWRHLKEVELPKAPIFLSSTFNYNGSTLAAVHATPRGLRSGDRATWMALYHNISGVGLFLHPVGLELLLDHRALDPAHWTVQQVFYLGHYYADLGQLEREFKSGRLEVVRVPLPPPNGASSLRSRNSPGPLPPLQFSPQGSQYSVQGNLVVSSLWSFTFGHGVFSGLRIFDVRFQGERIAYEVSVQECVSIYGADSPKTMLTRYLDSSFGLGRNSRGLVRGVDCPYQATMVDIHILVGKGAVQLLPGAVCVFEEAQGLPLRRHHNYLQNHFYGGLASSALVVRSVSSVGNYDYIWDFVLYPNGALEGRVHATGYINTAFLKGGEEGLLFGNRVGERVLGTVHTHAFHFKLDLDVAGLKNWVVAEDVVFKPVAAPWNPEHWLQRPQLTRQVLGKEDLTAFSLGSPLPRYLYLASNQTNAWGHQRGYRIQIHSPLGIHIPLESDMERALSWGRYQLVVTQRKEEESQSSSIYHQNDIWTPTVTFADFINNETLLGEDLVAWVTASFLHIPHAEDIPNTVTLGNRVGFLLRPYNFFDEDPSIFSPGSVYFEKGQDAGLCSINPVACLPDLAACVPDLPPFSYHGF
Description: AOC2 biochemical assay (Amplex Red). On the procedure: The Amplex® Red Assay (commercially available from Thermo Fisher Scientific) provides a sensitive method for the detection of H2O2 generated during enzymatic reactions like the amine oxidation catalyzed by AOC2. […] An aliquot of 5 μL of the compound dilution is added to a 96 well plate (flat bottom F, black, GREINER bio-one, #655900) in a DMSO concentration of 2%. […] Cells are cultured for 3 days in EMEM culture medium containing 10% FCS (#04-00-1A, Biological Industries). After washing twice with ice cold PBS, cells are lysed by mechanic homogenation and cleared supernatants are shock frozen in liquid nitrogen and stored at -80° C. For the determination of AOC2 enzymatic activity cell lysates are thawed on ice and 1:1 diluted with reaction buffer. An Aliquot of 45 μL is added to the compound dilution and incubated for 30 min at 37° C. The enzymatic reaction is started with the addition of 50 μL of Amplex® Red reaction mix (final assay concentration: 100 mM sodiumphosphate, 120 μM Amplex® Red reagent (#A22177 Molecular Probes), 1.5 U/mL Horseradish Peroxidase (#P8375 Sigma-Aldrich), 2 mM phenylethylamine (#[…] Sigma-Aldrich), 0.05% Pluronic F-127 (#P3000MP Sigma-Aldrich), pH 7.4, 37° C.). The turnover per time of the substrate is determined directly with a fluorescence reader (Ex 540 nm/Em 590 nm) like Envision 2104 Multilabel Reader (PERKIN ELMER) for 60 min. (cf. Anal Biochem (1997) 253:169-174; Anal Biochem (1997) 253:162-168)

The mark [1] stands for this setting: comparison table, read-out: IC50 MAO-A.

On to `CC(=O)N[C@@H]1CCCN(S(=O)(=O)c2ccc(OC/C(=C\F)CN)nc2)C1` [Example 24], for which the IC50 at MAO-A (IC50, read-out: MAO-A) was over 50 µM; at AOC2 (read-out: AOC2 IC50), 0.072 µM. The matching figures for `CNC(=O)[C@H]1[C@@H]2CN(S(=O)(=O)c3ccc(OC/C(=C\F)CN)nc3)C[C@@H]21` [Example 27]: over 50 µM and 0.062 µM. On to `CC1(O)CN(S(=O)(=O)c2ccc(OC/C(=C\F)CN)nc2)C1` [Example 16], for which the IC50 at MAO-A (IC50, read-out: MAO-A) amounted to 12.8 µM; at AOC2 (read-out: AOC2 IC50), 0.189 µM. The matching figures for `NC/C(=C/F)COc1ccc(S(=O)(=O)N2C[C@H]3C[C@@]3(C(=O)N3CCOCC3)C2)cn1` [Example 22]: over 50 µM and 0.093 µM. As for `CN(C)C(=O)[C@H]1CCN(S(=O)(=O)c2ccc(OC/C(=C\F)CN)nc2)C1` [Example 4], the IC50 at MAO-A (IC50, read-out: MAO-A) is over 50 µM; on AOC2 (read-out: AOC2 IC50), 0.394 µM. Take `CCNC(=O)C1(C)CCN(S(=O)(=O)c2ccc(OC/C(=C\F)CN)nc2)CC1` [Example 23]: the IC50 at MAO-A (IC50, read-out: MAO-A) was over 50 µM; on AOC2 (read-out: AOC2 IC50), 0.079 µM.

`NC/C(=C/F)COc1ccc(S(=O)(=O)N2CCC[C@@H]2C(N)=O)cn1` [Example 18]: the IC50 on MAO-A (IC50, read-out: MAO-A) was over 50 µM; on AOC2 (read-out: AOC2 IC50), 0.176 µM. `CC(=O)N[C@H]1CCCN(S(=O)(=O)c2ccc(OC/C(=C\F)CN)nc2)C1` [Example 6]: the IC50 on MAO-A (IC50, read-out: MAO-A) is over 50 µM; on AOC2 (read-out: AOC2 IC50), 0.285 µM. Taken in the same sequence, the figures for `NC/C(=C/F)COc1ccc(S(=O)(=O)N2CC[C@@H](C(N)=O)C2)cn1` [Example 31] were over 50 µM and 0.04 µM. Taken in the same sequence, the figures for `NC/C(=C/F)COc1ccc(S(=O)(=O)N2CC[C@H](C(N)=O)C2)cn1` [Example 39] were over 50 µM and 0.056 µM.

Consider `CNC(=O)[C@@]12C[C@@H]1CN(S(=O)(=O)c1ccc(OC/C(=C\F)CN)nc1)C2` [Example 29], for which the IC50 on MAO-A (IC50, read-out: MAO-A) was over 50 µM; on AOC2 (read-out: AOC2 IC50), 0.058 µM.

With `NC/C(=C/F)COc1ccc(S(=O)(=O)N2CC[C@H](O)C2)cc1` [Reference compound B, reference compound], the IC50 at MAO-A (setting [1]) was 7.25 µM.

For the compound `NC/C(=C/F)COc1ccc(S(=O)(=O)N2CC(C(N)=O)C2)cn1` [Example 20], the IC50 on MAO-A (IC50, read-out: MAO-A) is over 50 µM; at AOC2 (read-out: AOC2 IC50), 0.119 µM.

Take `NC/C(=C/F)COc1ccc(S(=O)(=O)N2CCC(C(=O)N3CCC3)CC2)cn1` [Example 10]: the IC50 at MAO-A (IC50, read-out: MAO-A) was over 50 µM; on AOC2 (read-out: AOC2 IC50), 0.214 µM.

In the case of `NC/C(=C/F)COc1cnc(N2CC[C@H](O)C2)nc1` [Z isomer of example 6 of WO 2018/027892, reference compound], the IC50 is 56.3 µM on MAO-A (setting [1]) and 2.73 µM on AOC2 (read-out: IC50 AOC2). For the compound `CC(=O)NC1CCN(S(=O)(=O)c2ccc(OC/C(=C\F)CN)nc2)C1` (stereo not shown) [Example 12], the IC50 is over 50 µM on MAO-A (IC50, read-out: MAO-A) and 0.209 µM on AOC2 (read-out: AOC2 IC50). Regarding `CN(C)S(=O)(=O)c1ccc(OC/C(=C\F)CN)cc1` [Compound 10 of WO 2013/163675, reference compound], the IC50 came to 7.41 µM at MAO-A (read-out: IC50 MAO-A) and 0.538 µM on AOC2 (read-out: IC50 AOC2). For the same compound, the “ratio IC50 AOC2/IC50 AOC3 (fold less active against AOC2 as compared to AOC3)” value at AOC2 (AOC2 versus AOC3) is “ca. 270 fold”.

`CCNC(=O)C1CCN(S(=O)(=O)c2ccc(OC/C(=C\F)CN)nc2)CC1` [Example 15]: the IC50 was over 50 µM at MAO-A (IC50, read-out: MAO-A) and 0.202 µM on AOC2 (read-out: AOC2 IC50). `CC1(O)CCN(S(=O)(=O)c2ccc(OC/C(=C\F)CN)nc2)CC1` [Example 41]: the IC50 on MAO-A (IC50, read-out: MAO-A) was over 50 µM; on AOC2 (read-out: AOC2 IC50), 0.024 µM. The matching figures for `NC/C(=C/F)COc1ccc(S(=O)(=O)N2CCC(C(=O)O)CC2)cn1` [Example 46]: over 50 µM and 0.045 µM.

As to `NC/C(=C/F)COc1ccc(S(=O)(=O)N2CCCCC2)cn1` [Example 38], the IC50 at MAO-A (IC50, read-out: MAO-A) stood at 32.3 µM; at AOC2 (read-out: AOC2 IC50), 0.061 µM. Taken in the same sequence, the figures for `COC(=O)C1CCN(S(=O)(=O)c2ccc(OC/C(=C\F)CN)nc2)CC1` [Example 34] were 15.2 µM and 0.078 µM. Taken in the same sequence, the figures for `NC/C(=C/F)COc1ccc(S(=O)(=O)N2CCC(C(N)=O)CC2)cn1` [Example 7] were over 50 µM and 0.272 µM. Regarding `CCNC(=O)CC1CCN(S(=O)(=O)c2ccc(OC/C(=C\F)CN)nc2)CC1` [Example 30], the IC50 worked out at 21.4 µM at MAO-A (IC50, read-out: MAO-A) and 0.044 µM at AOC2 (read-out: AOC2 IC50).

As for `NC/C(=C/F)COc1ccc(S(=O)(=O)N2CCC(O)(C(F)(F)F)CC2)cn1` [Example 42], the IC50 at MAO-A (IC50, read-out: MAO-A) was 48.2 µM; at AOC2 (read-out: AOC2 IC50), 0.009 µM. In the case of `NC/C(=C/F)COc1ccc(S(=O)(=O)N2CCC(CC(=O)N3CC(O)C3)CC2)cn1` [Example 55], on MAO-A (IC50, read-out: MAO-A), the IC50 was over 50 µM. `CN(C)C(=O)CC1CCN(S(=O)(=O)c2ccc(OC/C(=C\F)CN)nc2)CC1` [Example 19]: the IC50 at MAO-A (IC50, read-out: MAO-A) was over 50 µM; at AOC2 (read-out: AOC2 IC50), 0.13 µM. Taken in the same sequence, the figures for `CC(=O)N1CC(C2CCN(S(=O)(=O)c3ccc(OC/C(=C\F)CN)nc3)CC2)C1` [Example 9] were over 50 µM and 0.222 µM. As for `COCCNC(=O)CC1CCN(S(=O)(=O)c2ccc(OC/C(=C\F)CN)nc2)CC1` [Example 54], the IC50 at MAO-A (IC50, read-out: MAO-A) amounted to 26.9 µM. For the compound `CC1(C(=O)NC2CC2)CCN(S(=O)(=O)c2ccc(OC/C(=C\F)CN)nc2)CC1` [Example 56], on MAO-A (IC50, read-out: MAO-A), the IC50 was over 50 µM. Regarding `CC(F)(F)CNC(=O)CC1CCN(S(=O)(=O)c2ccc(OC/C(=C\F)CN)nc2)CC1` [Example 51], the IC50 on MAO-A (IC50, read-out: MAO-A) is 20.1 µM. For the compound `CC1(C(=O)NCCF)CCN(S(=O)(=O)c2ccc(OC/C(=C\F)CN)nc2)CC1` [Example 53], the IC50 on MAO-A (IC50, read-out: MAO-A) was over 50 µM. Same read-out and setting: in the case of `NC/C(=C/F)COc1ccc(S(=O)(=O)N2CCC(CC(=O)NCCO)CC2)cn1` [Example 52] it was 25.9 µM.

Take `NC/C(=C/F)COc1cnc(N2CCC(O)CC2)nc1` [reference compound]: the IC50 on MAO-A (setting [1]) was 54.9 µM.
